How the values were obtained:
human liver microsomes = assay: Human liver microsome incubation with or without chemical enzyme inhibitors; type: in vitro ADME
CYP2C19 = CYP2C19 (Homo sapiens, UniProt P33261); assay: In vitro P450 inhibition, recombinant CYP2C19; type: in vitro ADME
CYP2D6 = CYP2D6 (Homo sapiens, UniProt P10635); assay: In vitro P450 inhibition, recombinant CYP2D6; type: in vitro ADME
BSEP = BSEP (Homo sapiens, UniProt O95342); assay: BSEP vesicular transport inhibition assay; type: in vitro ADME
Sequence of BSEP (O95342 whole entry): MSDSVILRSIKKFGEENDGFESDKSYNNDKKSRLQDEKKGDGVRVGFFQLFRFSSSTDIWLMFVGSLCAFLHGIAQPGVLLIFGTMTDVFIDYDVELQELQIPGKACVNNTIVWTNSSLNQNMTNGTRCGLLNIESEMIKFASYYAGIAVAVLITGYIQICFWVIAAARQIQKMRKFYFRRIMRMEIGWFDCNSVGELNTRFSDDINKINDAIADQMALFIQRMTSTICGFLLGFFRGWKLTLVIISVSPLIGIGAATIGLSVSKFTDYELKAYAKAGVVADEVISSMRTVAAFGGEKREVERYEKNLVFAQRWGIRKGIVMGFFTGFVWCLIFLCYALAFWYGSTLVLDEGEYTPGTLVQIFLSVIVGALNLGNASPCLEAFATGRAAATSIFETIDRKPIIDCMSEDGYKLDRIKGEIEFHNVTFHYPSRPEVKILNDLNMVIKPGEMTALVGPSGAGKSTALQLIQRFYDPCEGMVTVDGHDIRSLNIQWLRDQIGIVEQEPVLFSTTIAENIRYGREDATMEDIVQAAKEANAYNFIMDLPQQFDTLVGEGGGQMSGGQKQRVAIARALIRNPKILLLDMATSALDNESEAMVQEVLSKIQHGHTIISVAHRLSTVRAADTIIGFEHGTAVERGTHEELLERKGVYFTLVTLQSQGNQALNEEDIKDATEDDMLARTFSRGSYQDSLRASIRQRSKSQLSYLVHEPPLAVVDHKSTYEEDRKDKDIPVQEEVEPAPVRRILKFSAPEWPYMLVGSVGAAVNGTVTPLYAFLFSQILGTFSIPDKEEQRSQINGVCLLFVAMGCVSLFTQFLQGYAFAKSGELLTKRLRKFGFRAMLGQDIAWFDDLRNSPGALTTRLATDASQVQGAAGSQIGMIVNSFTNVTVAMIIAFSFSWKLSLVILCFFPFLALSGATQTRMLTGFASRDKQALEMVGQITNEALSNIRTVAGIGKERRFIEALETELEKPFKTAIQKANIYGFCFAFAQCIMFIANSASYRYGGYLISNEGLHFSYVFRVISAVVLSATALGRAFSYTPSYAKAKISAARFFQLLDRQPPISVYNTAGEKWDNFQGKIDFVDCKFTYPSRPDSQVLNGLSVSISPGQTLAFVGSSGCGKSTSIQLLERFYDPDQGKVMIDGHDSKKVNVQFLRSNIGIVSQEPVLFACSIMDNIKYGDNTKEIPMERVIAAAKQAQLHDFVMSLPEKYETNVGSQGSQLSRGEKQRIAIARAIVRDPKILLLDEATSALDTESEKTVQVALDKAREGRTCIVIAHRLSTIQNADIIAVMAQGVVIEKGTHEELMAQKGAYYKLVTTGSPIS

OATP1B3 = target: T1, OATP1B3 (Homo sapiens, UniProt Q9NPD5); assay: OATP1B3 uptake inhibition assay; type: in vitro ADME; details: at 40 µM
T1 sequence (Q9NPD5 1-702): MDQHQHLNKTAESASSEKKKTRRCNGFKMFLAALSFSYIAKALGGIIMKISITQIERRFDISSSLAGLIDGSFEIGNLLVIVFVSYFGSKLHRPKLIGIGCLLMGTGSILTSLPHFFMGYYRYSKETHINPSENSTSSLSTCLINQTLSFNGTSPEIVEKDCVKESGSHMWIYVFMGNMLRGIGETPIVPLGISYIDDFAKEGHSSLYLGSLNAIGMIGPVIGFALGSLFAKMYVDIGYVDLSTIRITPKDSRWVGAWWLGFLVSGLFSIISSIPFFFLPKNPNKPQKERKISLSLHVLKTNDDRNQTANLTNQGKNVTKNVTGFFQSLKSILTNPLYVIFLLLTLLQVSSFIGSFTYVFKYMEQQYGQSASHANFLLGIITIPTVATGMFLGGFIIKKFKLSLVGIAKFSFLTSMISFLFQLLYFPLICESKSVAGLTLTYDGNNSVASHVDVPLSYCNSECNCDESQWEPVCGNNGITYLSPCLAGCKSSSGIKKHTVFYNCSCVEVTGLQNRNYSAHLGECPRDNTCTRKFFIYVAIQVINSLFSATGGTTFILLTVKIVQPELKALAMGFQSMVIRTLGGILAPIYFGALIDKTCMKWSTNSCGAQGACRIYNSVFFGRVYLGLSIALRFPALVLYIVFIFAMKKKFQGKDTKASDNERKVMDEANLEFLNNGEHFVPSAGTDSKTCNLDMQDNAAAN

BCRP = target: T2, BCRP (Homo sapiens, UniProt Q9UNQ0); assay: BCRP monolayer substrate assay; type: in vitro ADME
T2 sequence (Q9UNQ0 1-655): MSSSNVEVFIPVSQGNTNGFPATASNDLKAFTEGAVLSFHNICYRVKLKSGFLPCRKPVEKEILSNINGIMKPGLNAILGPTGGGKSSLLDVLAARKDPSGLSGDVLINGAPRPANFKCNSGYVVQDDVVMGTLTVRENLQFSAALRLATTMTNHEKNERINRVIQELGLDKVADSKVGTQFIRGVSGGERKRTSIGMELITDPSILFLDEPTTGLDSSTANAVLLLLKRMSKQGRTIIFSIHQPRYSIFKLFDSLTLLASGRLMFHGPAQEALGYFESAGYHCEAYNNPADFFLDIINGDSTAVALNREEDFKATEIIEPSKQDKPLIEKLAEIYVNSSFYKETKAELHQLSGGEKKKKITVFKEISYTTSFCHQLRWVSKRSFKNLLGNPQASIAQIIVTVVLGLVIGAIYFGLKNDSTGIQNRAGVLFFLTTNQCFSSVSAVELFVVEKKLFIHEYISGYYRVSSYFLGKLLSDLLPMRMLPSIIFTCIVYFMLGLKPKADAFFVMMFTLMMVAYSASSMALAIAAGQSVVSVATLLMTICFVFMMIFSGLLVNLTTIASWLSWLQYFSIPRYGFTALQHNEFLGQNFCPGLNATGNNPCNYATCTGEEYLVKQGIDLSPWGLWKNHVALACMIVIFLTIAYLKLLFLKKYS

MATE2-K = MATE2-K (Homo sapiens, UniProt Q86VL8); assay: MATE2-K uptake substrate assay; type: in vitro ADME
Sequence of MATE2-K (Q86VL8 1-566 isoform Q86VL8-3): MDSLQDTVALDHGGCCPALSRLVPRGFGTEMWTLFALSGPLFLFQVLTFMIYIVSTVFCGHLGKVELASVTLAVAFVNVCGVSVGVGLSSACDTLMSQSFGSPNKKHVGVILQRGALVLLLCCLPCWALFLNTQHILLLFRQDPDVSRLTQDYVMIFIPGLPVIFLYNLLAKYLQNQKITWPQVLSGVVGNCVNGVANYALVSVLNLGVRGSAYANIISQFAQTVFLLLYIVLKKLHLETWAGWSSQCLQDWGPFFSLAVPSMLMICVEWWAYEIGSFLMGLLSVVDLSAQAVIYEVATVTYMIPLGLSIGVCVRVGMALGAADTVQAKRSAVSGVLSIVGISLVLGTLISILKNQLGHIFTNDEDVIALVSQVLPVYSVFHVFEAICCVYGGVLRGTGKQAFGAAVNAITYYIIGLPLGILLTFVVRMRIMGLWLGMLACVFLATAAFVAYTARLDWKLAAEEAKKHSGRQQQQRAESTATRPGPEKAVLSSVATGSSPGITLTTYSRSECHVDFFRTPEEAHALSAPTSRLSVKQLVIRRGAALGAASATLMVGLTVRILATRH

OCT2 = target: T3, OCT2 (Homo sapiens, UniProt O15244); assay: OCT2 uptake substrate assay; type: in vitro ADME
T3 sequence (O15244 1-555): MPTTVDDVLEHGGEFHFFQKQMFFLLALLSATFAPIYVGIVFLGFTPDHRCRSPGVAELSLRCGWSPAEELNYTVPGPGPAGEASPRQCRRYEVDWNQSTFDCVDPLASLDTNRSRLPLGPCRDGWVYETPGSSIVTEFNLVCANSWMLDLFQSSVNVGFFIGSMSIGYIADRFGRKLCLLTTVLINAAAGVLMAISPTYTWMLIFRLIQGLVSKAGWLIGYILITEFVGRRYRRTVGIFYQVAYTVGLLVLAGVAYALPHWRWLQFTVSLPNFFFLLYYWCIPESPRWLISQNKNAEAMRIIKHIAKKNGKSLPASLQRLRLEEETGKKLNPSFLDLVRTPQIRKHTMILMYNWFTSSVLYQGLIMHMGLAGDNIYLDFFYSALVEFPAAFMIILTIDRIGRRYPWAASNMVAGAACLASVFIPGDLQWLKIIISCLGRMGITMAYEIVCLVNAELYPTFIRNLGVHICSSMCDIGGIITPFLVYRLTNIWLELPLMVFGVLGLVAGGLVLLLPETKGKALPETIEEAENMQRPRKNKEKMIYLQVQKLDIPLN

[1] = Phase 1 clinical drug–drug interaction study, plasma pharmacokinetics; type: in vivo, human
CYP3A4 = details: ocedurenone at 0.1, 1, or 10 μM, 72 h; inducer criterion 40%
[2] = transporter-expressing vs control cells, 0.04–40 µm
[3] = ocedurenone + itraconazole (test) vs ocedurenone alone (reference), Cohort 1
[4] = ocedurenone + rifampin (test) vs ocedurenone alone (reference), Cohort 2

Sequence of CYP2D6 (P10635 whole entry): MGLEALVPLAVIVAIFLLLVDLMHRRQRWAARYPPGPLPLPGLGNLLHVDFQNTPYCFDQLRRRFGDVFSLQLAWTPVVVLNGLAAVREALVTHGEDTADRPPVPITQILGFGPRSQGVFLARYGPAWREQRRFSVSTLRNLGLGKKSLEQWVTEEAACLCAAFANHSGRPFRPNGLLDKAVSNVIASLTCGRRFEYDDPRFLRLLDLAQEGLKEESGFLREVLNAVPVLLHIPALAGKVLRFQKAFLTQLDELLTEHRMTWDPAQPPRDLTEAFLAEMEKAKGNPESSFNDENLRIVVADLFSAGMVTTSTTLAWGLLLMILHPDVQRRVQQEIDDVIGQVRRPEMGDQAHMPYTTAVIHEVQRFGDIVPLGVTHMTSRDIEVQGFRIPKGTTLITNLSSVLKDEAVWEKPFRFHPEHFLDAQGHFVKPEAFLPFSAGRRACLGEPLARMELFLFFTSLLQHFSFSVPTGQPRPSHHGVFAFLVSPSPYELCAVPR
Sequence of CYP2C19 (P33261 whole entry): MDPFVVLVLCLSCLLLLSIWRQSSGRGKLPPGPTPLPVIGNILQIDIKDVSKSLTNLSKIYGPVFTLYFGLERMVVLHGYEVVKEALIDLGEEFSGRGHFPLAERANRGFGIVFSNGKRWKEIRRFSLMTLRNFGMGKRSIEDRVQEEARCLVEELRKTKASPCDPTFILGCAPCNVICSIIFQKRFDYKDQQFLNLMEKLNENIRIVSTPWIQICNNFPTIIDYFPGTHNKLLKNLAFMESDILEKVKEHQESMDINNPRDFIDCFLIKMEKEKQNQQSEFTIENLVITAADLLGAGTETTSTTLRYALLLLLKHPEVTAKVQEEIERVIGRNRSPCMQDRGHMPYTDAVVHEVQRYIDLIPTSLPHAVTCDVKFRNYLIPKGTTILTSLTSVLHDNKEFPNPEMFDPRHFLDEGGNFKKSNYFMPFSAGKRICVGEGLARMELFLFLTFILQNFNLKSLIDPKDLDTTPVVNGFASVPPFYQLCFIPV

Q: With `N#Cc1ccc(N2N=C3c4ccc(C(=O)N5CCC(O)CC5)nc4CC[C@@H]3[C@@H]2C2CCCC2)cc1Cl` [Ocedurenone, ocedurenone] as the molecule, how does the “stability in human hepatic microsomes” value (human liver microsomes) read?
A: stable

Q: What about the “ocedurenone metabolism in HLM with chemical inhibitor added” value (human liver microsomes; 1-aminobenzotriazole or ketoconazole added separately, 3 µm ocedurenone) of the same molecule?
A: inhibited

Q: And the “percent remaining activity of CYP2C19” value (CYP2C19; ocedurenone at 200 μM)?
A: 78.5%

Q: What about the IC50 (CYP2C19; read-out: IC50 CYP2C19, recombinant CYP) of the same molecule?
A: > 200 µM

Q: What about the “inhibition category CYP2C19” value (CYP2C19; recombinant enzyme) of the same molecule?
A: little or no inhibition

Q: And the “percent remaining activity of CYP2D6” value (CYP2D6; ocedurenone at 200 μM)?
A: 87.8%

Q: What about the IC50 (CYP2D6; read-out: IC50 CYP2D6, recombinant CYP) of the same molecule?
A: > 200 µM

Q: What about the “inhibition category CYP2D6” value (CYP2D6; recombinant enzyme) of the same molecule?
A: little or no inhibition

Q: And the “inhibition of BSEP at 40 µM” value (BSEP; first vesicular transport run, 40 µM)?
A: 79%

Q: What about the “maximum inhibition of BSEP-mediated transport” value (BSEP; repeat with 7 concentrations) of the same molecule?
A: 71%

Q: And the “maximum inhibition of OATP1B3-mediated probe substrate accumulation” value (OATP1B3)?
A: 58%

Q: And the “Substrate, BCRP ML” value (BCRP)?
A: likely a substrate

Q: What about the “Substrate, MATE2-K UPT” value (MATE2-K) of the same molecule?
A: not likely to be a substrate

Q: And the “Maximum fold accumulation, MATE2-K UPT” value (MATE2-K; [2])?
A: < 2

Q: And the “Substrate, OCT2 UPT” value (OCT2)?
A: not likely to be a substrate

Q: And the “Maximum fold accumulation, OCT2 UPT” value (OCT2; [2])?
A: 1.0

Q: What about the “geometric least squares mean ratio (test:reference) and 90% CI, AUC0-inf” value [1, 3] of the same molecule?
A: 199.5 (182.3, 218.3)

Q: And the “geometric least squares mean ratio (test:reference) and 90% CI, AUClast” value [1, 3]?
A: 161.0 (152.3, 170.3)

Q: And the “geometric least squares mean ratio (test:reference) and 90% CI, Cmax” value [1, 3]?
A: 107.4 (103.2, 111.8)

Q: What about the “geometric least squares mean ratio (test:reference) and 90% CI, AUC0-inf” value [1, 4] of the same molecule?
A: 17.2 (16.2, 18.2)

Q: And the “geometric least squares mean ratio (test:reference) and 90% CI, AUClast” value [1, 4]?
A: 17.5 (16.6, 18.5)

Q: And the “geometric least squares mean ratio (test:reference) and 90% CI, Cmax” value [1, 4]?
A: 73.4 (69.5, 77.5)

Q: What about the “effect of rifampin on ocedurenone pharmacokinetics (interaction class)” value ([1]; strong CYP3A4 inducer rifampin) of the same molecule?
A: strong (> 5-fold)

Q: And the “effect of itraconazole on ocedurenone exposure (interaction class)” value ([1]; strong CYP3A inhibitor itraconazole)?
A: weak (1.25- to 2-fold)

Q: And the “percent CYP3A4 induction (of positive control)” value (CYP3A4)?
A: lower than 40%

Reference: article PMC10322960 (European Journal of Drug Metabolism and Pharmacokinetics, 2023)
